Assay results published in US20150250713A1, “Pharmaceutical Composition” (CIPLA LIMITED, priority 2012, published 2015).

Experiment: Moisture uptake of HFA propellants
Format: physicochemical
Details: ratio versus HFA-227 (measured values)

- moisture uptake compared to HFA-227: six times higher
SMILES: FCC(F)(F)F [HFA-134 (a), 1,1,1,2-tetrafluoroethane]
